The test system of one test is H358 cells. The test can be described thus: H358 cell proliferation inhibition (CellTiter-Glo luminescent cell viability assay). In kind it is cell-based. The note with it: Homo sapiens, NCI-H358, 168 h, 7 days. On the procedure:
The effect of the compounds of the present invention on H358 cell proliferation was assessed by CellTiter-Glo luminescent cell viability assay kit method.
H358 cells (ATCC, CRL-5807) were cultured in RPMI1640 (Hyclone, SH30256.01) complete medium containing 10% FBS (Gibco, 10100147) and 100 U/mL penicillin-streptomycin mixed solution (Gibco, 15140163). When the cells grew to 80-90%, the cells were digested, pipetted, and seeded in a 96-well plate (Corning, 4515) at 3000 cells/well (180 µL RPMI1640 complete medium), and then the 96-well plate was incubated overnight in an incubator at 37 °C with 5% CO2.
After incubation overnight, 20 µL of a diluted test compound was added to each well using a multi-channel pipette, and the 96-well plate was placed in an incubator at 37 °C with 5% CO2 for further culture. After 7 days, 100 µL of the supernatant was pipetted and discarded. 50 µL of CellTiter-Glo® 3D Cell Viability Assay liquid was added to each well. The plate was shaken at room temperature at 450 rpm for 30 min. After the cells were completely lysed, "Luminescence" on the microplate reader was selected for plate reading. In this experiment, the cell-free group (replaced with 1640 medium) was used as the 100% inhibition group, and the compound-free group in which the cell was added was used as the 0% inhibition group.
The inhibition percentage of H358 cell proliferation by the compounds of the present invention could be calculated by the following formula: [formula]
IC50 values of the compounds were calculated from 8 concentration points using XLfit (ID Business Solutions Ltd., UK) software by the following formula: Y = Bottom + (Top−Bottom)/(1+10^(∧)((logIC50−X)×slopefactor)) [formula]
Y is the inhibition percentage, X is the logarithmic value of the concentration of the test compound, Bottom is the minimum inhibition percentage, Top is the maximum inhibition percentage, and slope factor is the slope coefficient of the curve.
(Cellular ATP, detected with luciferase, serves as a proxy for viable cell number.)

For test [1], the system named is p-ERK pathway in H358 cells. Briefly: p-ERK pathway inhibition in H358 cells (Advanced phospho-ERK (Thr202/Tyr204) cellular kit, HTRF). In kind it is cell-based. Conditions: Homo sapiens, NCI-H358, 1 h compound incubation. The essentials: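 IC50 from an 8-point four-parameter fit of % inhibition of ERK Thr202/Tyr204 phosphorylation, measured by HTRF 665/620 ratio in lysates. H358 cells were seeded at 50000/well, starved overnight without serum, and exposed to compound 1 h at 37 °C; controls were cell-free (100%) and untreated (0%).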
A general note: In TR-FRET formats the signal depends on donor and acceptor labels being close together.

This passage reports IC50 results from EP4417607A1, “HETEROCYCLIC COMPOUND AS SOS1 INHIBITOR AND USES THEREOF” (Nanjing Zaiming Pharmaceutical Co., Ltd., priority 2021, dated 2023).

For `Cc1nc(N[C@H](C)c2cccc(C(F)F)c2F)c2cn(C3(CF)CC3)c(=O)c(OCc3ccccn3)c2n1` [Example 122, (R)-4-((1-(3-(difluoromethyl)-2-fluorophenyl)ethyl)amino)-6-(1-(fluoromethyl)cyclopropyl)-2-methyl-8-(pyridin-2-ylmethoxy)pyrido[4,3-d]pyrimidine-7(6H)-one], the 50% inhibitory concentration (IC50) in the test on H358 cells was found to be 0.102 µM; in test [1] it was 0.111 µM.

Regarding `Cc1nc(N[C@H](C)c2cccc(C(F)F)c2F)c2cn(N3CCOCC3)c(=O)c(-c3cnn4c3COCC4)c2n1` [Example 138, (R)-4-((1-(3-(difluoromethyl)-2-fluorophenyl)ethyl)amino)-8-(6,7-dihydro-4H-pyrazolo[5,1-c][1,4]oxazin-3-yl)-2-methyl-6-morpholinylpyrido[4,3-d]pyrimidine-7(6H)-one], the IC50 came out at 0.115 µM with H358 cells and 0.0631 µM in test [1].

In the case of `Cc1nc(N[C@H](C)c2cccc(C(F)F)c2F)c2cn(C3(CF)CC3)c(=O)c(N3CCC(C)(O)C3)c2n1` (stereo partly drawn) [Example 62, 4-(((R)-1-(3-(difluoromethyl)-2-fluorophenyl)ethyl)amino)-6-(1-(fluoromethyl)cyclopropyl)-8-(3-hydroxy-3-methylpyrrolidin-1-yl)-2-methylpyrido[4,3-d]pyrimidine-7(6H)-one], the values for the half-inhibitory concentration (IC50) (in the test on H358 cells; in test [1]) were 0.0716 µM and 0.133 µM, respectively.

For `Cc1nc(N[C@H](C)c2cccc(C(F)F)c2F)c2cn(C3(CF)CC3)c(=O)c(N3CCOC[C@H]3C)c2n1` [Example 39, 4-(((R)-1-(3-(difluoromethyl)-2-fluorophenyl)ethyl)amino)-6-(1-(fluoromethyl)cyclopropyl)-2-methyl-8-((R)-3-methylmorpholine)pyrido[4,3-d]pyrimidine-7(6H)-one], the IC50 came to 0.0327 µM in the test with H358 cells and 0.0387 µM in test [1].

For `COc1c(=O)n(C2(CF)CCN(C(C)=O)C2)cc2c(N[C@H](C)c3cccc([N+](=O)[O-])c3C)nc(C)nc12` (stereo partly drawn) [Example 16, 6-(1-acetyl-3-(fluoromethyl)pyrrolidin-3-yl)-8-methoxy-2-methyl-4-(((R)-1-(2-methyl-3-nitrophenyl)ethyl)amino)pyrido[4,3-d]pyrimidine-7(6H)-one], the half-inhibitory concentration (IC50) with H358 cells is 0.187 µM; in test [1] it was 0.028 µM.

For `Cc1nc(N[C@H](C)c2cccc(S(F)(F)(F)(F)F)c2)c2cn(N3CCOCC3)c(=O)c(-c3ccc(C#N)nc3)c2n1` [Example 22, (R)-5-(2-methyl-6-morpholinyl-7-oxo-4-((1-(3-(pentafluoro-λ^6-sulfanyl)phenyl)ethyl)amino)-6,7-dihydropyrido[4,3-d]pyrimidin-8-yl)pyridinecarbonitrile], the IC50 in the test on H358 cells was determined as 0.129 µM; in test [1], 0.18 µM.

Turning to `COc1ccc(-c2c(=O)n(N3CCOCC3)cc3c(N[C@H](C)c4cccc(C#N)c4C)nc(C)nc23)cn1` [Example 162], the IC50 in the test on H358 cells was found to be 0.0965 µM; in test [1] it was 0.0775 µM.

Turning to `Cc1nc(N[C@H](C)c2cccc(C(F)F)c2F)c2cn(C3(CF)CC3)c(=O)c(N3CCN(C4(C)COC4)CC3)c2n1` [Example 143], the figures for the half-inhibitory concentration (IC50) (in the test with H358 cells; in test [1]) were 0.0158 µM and 0.0348 µM, respectively.

In the case of `[2H]C([2H])([2H])[C@@H](Nc1nc(C)nc2c(N3CCOCC3)c(=O)n(C3(CF)CC3)cc12)c1cccc(C(F)F)c1F` [Example 90], the IC50 in the test with H358 cells was 0.0354 µM; in test [1], 0.0167 µM.

For the compound `COc1c(=O)n(C2(CF)CC2)cc2c(N[C@H](C)c3cccc(C(C)(F)F)c3F)nc(C)nc12` [Example 11, (R)-4-((1-(3-(1,1-difluoroethyl)-2-fluorophenyl)ethyl)amino)-6-(1-(fluoromethyl)cyclopropyl)-8-methoxy-2-methylpyrido[4,3-d]pyrimidine-7(6H)-one], the results for the 50% inhibitory concentration (IC50) (in the test with H358 cells; in test [1]) were 0.0508 µM and 0.0882 µM, respectively.

Take `Cc1nc(N[C@H](C)c2cccc(C(F)(F)F)c2C)c2cn(N3CCOCC3)c(=O)c(N3CCN(C)CC3)c2n1` [Example 70, (R)-2-methyl-4-((1-(2-methyl-3-(trifluoromethyl)phenyl)ethyl)amino)-8-(4-methylpiperazin-1-yl)-6-morpholinepyrido[4,3-d]pyrimidine-7(6H)-one]: the half-inhibitory concentration (IC50) with H358 cells was determined as 0.0452 µM; in test [1], 0.0345 µM.

For `Cc1nc(N[C@H](C)c2cccc(C(F)F)c2F)c2cn(C3(CF)CC3)c(=O)c(N3CC4CC(C3)O4)c2n1` [Example 174], the 50% inhibitory concentration (IC50) with H358 cells was 0.0362 µM; in test [1], 0.0204 µM.

As to `[2H]C1([2H])COC[C@H](C)N1c1c(=O)n(C2(CF)CC2)cc2c(N[C@H](C)c3cccc(C(F)F)c3F)nc(C)nc12` [Example 175], the half-inhibitory concentration (IC50) is 0.0362 µM with H358 cells and 0.031 µM in test [1].

As for `Cc1nc(N[C@H](C)c2cccc(C(F)(F)C(C)(C)C#N)c2)c2cn(C3(CF)CC3)c(=O)cc2n1` [Example 6, (R)-3,3-difluoro-3-(3-(1-((6-(1-(fluoromethyl)cyclopropyl)-2-methyl-7-oxo-6,7-dihydropyrido[4,3-d]pyrimidin-4-yl)amino)ethyl)phenyl)-2,2-dimethylpropanenitrile], the figures for the 50% inhibitory concentration (IC50) (with H358 cells; in test [1]) were 0.08 µM and 0.112 µM, respectively.

Consider `Cc1nc(N[C@H](C)c2cccc(C(F)F)c2F)c2cn(C3(CF)CC3)c(=O)c(N3C[C@@H](C)O[C@@H](C)C3)c2n1` [Example 41, 4-(((R)-1-(3-(difluoromethyl)-2-fluorophenyl)ethyl)amino)-8-((2S,6R)-2,6-dimethylmorpholino)-6-(1-(fluoromethyl)cyclopropyl)-2-methylpyrido[4,3-d]pyrimidine-7(6H)-one], for which the IC50 with H358 cells turned out to be 0.052 µM; in test [1] it was 0.117 µM.

On to `Cc1nc(N[C@H](C)c2cccc(C(F)F)c2F)c2cn(C3(CF)CC3)c(=O)c(OC(F)F)c2n1` [Example 119, (R)-8-(difluoromethoxy)-4-((1-(3-(difluoromethyl)-2-fluorophenyl)ethyl)amino)-6-(1-(fluoromethyl)cyclopropyl)-2-methylpyrido[4,3-d]pyrimidine-7(6H)-one], for which the figures for the IC50 (in the test on H358 cells; in test [1]) were 0.0721 µM and 0.0546 µM, respectively.

Regarding `Cc1nc(N[C@H](C)c2cccc(C(F)F)c2F)c2cn(C3(CF)CC3)c(=O)c(N3CCOC[C@@H]3C(C)C)c2n1` [Example 57, 4-(((R)-1-(3-(difluoromethyl)-2-fluorophenyl)ethyl)amino)-6-(1-(fluoromethyl)cyclopropyl)-8-((S)-3-isopropylmorpholino)-2-methylpyrido[4,3-d]pyrimidine-7(6H)-one], the results for the IC50 (with H358 cells; in test [1]) were 0.0731 µM and 0.0675 µM, respectively.

For `Cc1nc(N[C@H](C)c2cccc(C(F)F)c2F)c2cn(C3(CF)CC3)c(=O)c(N3CCN(CC(F)(F)F)CC3)c2n1` [Example 131, (R)-4-((1-(3-(difluoromethyl)-2-fluorophenyl)ethyl)amino)-6-(1-(fluoromethyl)cyclopropyl)-2-methyl-8-(4-(2,2,2-trifluoroethyl)piperazin-1-yl)pyrido[4,3-d]pyrimidine-7(6H)-one], the IC50 in the test on H358 cells came out at 0.0884 µM; in test [1], 0.0565 µM.

Consider `COC1(C)CCN(c2c(=O)n(C3(CF)CC3)cc3c(N[C@H](C)c4cccc(C(F)F)c4F)nc(C)nc23)CC1` [Example 155], for which the concentration for half-maximal inhibition (IC50) is 0.123 µM with H358 cells and 0.0598 µM in test [1].

With `[2H][C@](C)(Nc1nc(C)nc2c(N3CCS(=O)(=O)CC3)c(=O)n(C3(CF)CC3)cc12)c1cccc(C(F)F)c1F` [Example 124, (R)-4-((1-(3-(difluoromethyl)-2-fluorophenyl)ethyl-1-d)amino)-8-(1,1-dioxidothiomorpholinyl)-6-(1-(fluoromethyl)cyclopropyl)-2-methylpyrido[4,3-d]pyrimidine-7(6H)-one], the figures for the concentration for half-maximal inhibition (IC50) (with H358 cells; in test [1]) were 0.0419 µM and 0.0623 µM, respectively.

As for `Cc1nc(N[C@H](C)c2cccc(C(F)F)c2F)c2cn(C3(CF)CC3)c(=O)c(C3(O)CCOC3)c2n1` (stereo partly drawn) [Example 139, 4-(((R)-1-(3-(difluoromethyl)-2-fluorophenyl)ethyl)amino)-6-(1-(fluoromethyl)cyclopropyl)-8-(3-hydroxytetrahydrofuran-3-yl)-2-methylpyrido[4,3-d]pyrimidine-7(6H)-one], the IC50 with H358 cells was 0.0866 µM; in test [1], 0.0812 µM.

Regarding `Cc1nc(N[C@H](C)c2cccc(C#N)c2C)c2cn(N3CCOCC3)c(=O)c(OC3(C)CC3)c2n1` [Example 91, (R)-2-methyl-3-(1-((2-methyl-8-(1-methylcyclopropoxy)-6-morpholinyl-7-oxo-6,7-dihydropyrido[4,3-d]pyrimidin-4-yl)amino)ethyl)benzonitrile], the figures for the half-maximal inhibitory concentration (IC50) (in the test with H358 cells; in test [1]) were 0.148 µM and 0.133 µM, respectively.

For orientation: IC50 means the concentration at which inhibition is half-maximal. The low end stands for greater potency in that assay, the high end for weaker potency in that assay.
